Results on one compound are retold here after patent publication US8173600B2, “Caspase-2 inhibitors and their biological applications” (Chiesi Farmaceutici S.p.A., priority 2004, dated 2012).

Molecules are shown by their SMILES. Like-named read-outs stand apart in the source and are kept apart here. Peptide text beside a SMILES is read from it. * marks the point of attachment. X1 = COC(=O)C[C@H](N*)C(=O)COc1c(F)cccc1F; Quinaldoyl = O=C(c1ccc2ccccc2n1)*

Data set [1] deals with 32 others related-proteases or enzymes involved in signal transduction and neuronal metabolism, nitric oxide pathway or prostanglandin metabolism. Particulars: 1 μM, n=2.
Data set [2] relates to neonatal ischemic brain injury.
The target of data set [3] is caspase-2 (Rattus norvegicus, UniProt P55215). The settings on record: 5 mg/kg i.p., sacrificed at 24 hrs, brain homogenates.
caspase-2, sequence (P55215 whole entry): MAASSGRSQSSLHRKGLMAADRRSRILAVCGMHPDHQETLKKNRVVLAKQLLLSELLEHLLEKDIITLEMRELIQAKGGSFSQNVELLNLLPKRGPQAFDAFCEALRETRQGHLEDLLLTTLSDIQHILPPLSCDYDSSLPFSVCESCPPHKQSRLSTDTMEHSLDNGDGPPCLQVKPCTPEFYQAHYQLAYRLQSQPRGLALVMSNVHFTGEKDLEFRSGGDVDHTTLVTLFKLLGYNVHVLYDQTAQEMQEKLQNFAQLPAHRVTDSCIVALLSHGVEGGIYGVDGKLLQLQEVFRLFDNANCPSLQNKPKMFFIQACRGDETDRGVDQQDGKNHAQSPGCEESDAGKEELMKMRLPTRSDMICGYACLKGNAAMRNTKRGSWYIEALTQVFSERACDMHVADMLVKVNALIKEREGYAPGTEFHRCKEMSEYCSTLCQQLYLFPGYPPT
Protocol: Brain hemispheres were lysed in 10 mM Hepes, 5 mM MgCl2, 42 mM KCl, 1 mM DTT, 0.5% CHAPS supplemented by complete protease inhibitors cocktail (Roche, Meylan, France) by using a manual potter on ice. Homogenates were centrifuged at 10000 g/4° C. for 10 min before keeping surnageant. Protein concentration was determined using BCA test. Proteins (50 μg) were separated on 12.5% polyacrylamide gels and transferred to PVDF membranes (Amersham). […] The monoclonal anti-mouse caspase-2 antibody (52 kDa; 11B4, Alexis Biochemicals) was used at a 1:1000 dilution; actin (42 kDa; Sigma; antibody diluted 1:5000) is used as an equal loading control.
Caspase-2 activity (100 μg protein brain sample) was assessed in 100 μl assay buffer (50 mM HEPES, pH 7.4, 100 mM NaCl, 0.1% CHAPS, 10 mM DTT, 1 mM EDTA, 10% glycerol). The cleavage of 50 μM VDVAD(SEQ ID NO:9)-AMC by recombinant caspase-2 was measured after 2 h at 37° C. on a fluorescence microplate reader by monitoring the fluorescence emission at 510 nm upon excitation at 405 nm.
Animals were sacrified at 24 hrs. Brain homogenates were subjected to caspase-2 activity assay and western blot analysis. IL: ipsilateral injured hemisphere, CL: contralateral unlesionned hemisphere.
For data set [4] the following is noted: after freeze/thawing of aqueous solution.
Description: Stability was followed throughout 7 days at RT or after freeze/thawing of aqueous solution comprising various 10-100% of excipients by using HPLC (Varian ProStar 410 equipped of Nucleosile C18 (8 μm, 3.9×150 mm) with detection at 214 nm).
The test system of data set [5] is primary cortical neurons. The protocol:
Primary cortical neurons were cultured from E14 SWISS mice embryos (Janvier). Mice were sacrificed by cervical dislocation and embryos were removed by caesarean. Cerebral cortices were extracted and tissues mechanically triturated 15 times in L15 medium (Gibco BRL) by using 1000 μl tips (Eppendorf), then debris were removed, and the cell suspension was centrifuged at 850 rpm for 10 min. […]
5.1.3 Apoptosis assays. Analysis was performed on previously stained adherent neurons by fluorescence microscopy (FM) (DM IRB inverted fluorescence microscope, Leica, Rueil-malmaison, France) equipped with a 100 W mercury short arc lamp and a X 40 N PLAN L objective or a water immersion X 100 N PLAN objective. Usually, quantitative studies were performed by both FM on approximately 200-600 cells/field by scoring 5-10 random-selected fields per experiment and flow cytometry (FC) for higher sample throughput. […] Activated caspase-2 was detected using specific FAM-conjugated peptides (called FLICA: CaspaTag™ fluorescein Caspase Activity Kits, Q-Biogen, Illkirch, France; ApoFluor™ Caspase Detection Kits, MP BioMedicals): FAM-VDVAD (SEQ ID NO:9)-fmk. Viability loss was assessed by 7-AAD (Sigma) incorporation.

The subject of data set [6] is non-ischemic rats. Particulars: rat, in vivo.
Protocol: The selective loss of vulnerable cells and Qco-VDVAD-dfp(SEQ ID NO:1)'s effects (intracerebroventricular (ICV) administrated) have been evaluated at 72 h. Rats were sacrificed and brain fixed by trans-cardiac perfusion with paraformaldehyde. Frontal brain slices (25 μm) were strained by Cresyl-Violet or co-stained by Hoechst 33342 and Fluorojade B to assess cell death in the hippocampus and in the cortex. Cresyl-Violet is a pink-red dye that labels cytoplamic body Nissl (endoplasmic reticulum structures) and nuclei in living cells thus resulting in pale or absence of staining in dying cells. Fluoro JadeB (green fluorescence) intake is possible only in cells which have permeable plasma membrane, thus more caracteristic of dying cells. Hoechst 33342 (blue fluorescence) label nuclei all all cells and allows to appreciate nuclear morphology changes during cell death.
Cells were counted at the level of canula, as well as 650 μm and 780 μm after the cannula (antero-posterior axis) in the left brain hemisphere. Cells are counted in three successives slices at such levels in the hippocampus (CA1, CA3, girus dentus) and cortex. Cresyl-Violet stained slices were observed under white light (Nikon Eclipse E 800M microscope equipped with ×40 et ×20 objectives and LEICA IM50 software). […]
Data set [7] deals with global cerebral ischemia (4VO). The settings on record: icv, 72 h post-ischemia.
Protocol: Global cerebral ischemia was induced by four-vessel occlusion (4VO) according a Pulsinelli's derived method (Pulsinelli et al., 1982; Pulsinelli and Buchman, 1988) in young-adult rats (males Wistar aged of 10-12 weeks, 320 g+/−10 g; Janvier). The first day, head of anesthetised rats was positionned in stereotaxic ear bars and tilted down at approximatively 30° to the horizontal. After a midline incision at the level of cervical spine, both vertebral arteries were exposed under microscope and then coagulated by electocautery needle through the alar foramina at the level of first cervical vertebra. Both common carotides were then exposed 24 h later and clamped for 20-30 min (rats fell in the coma when electrocautherisation of both vertebral arteries have been well performed). Carotid arteries were then declamped to allow blood flow reperfusion. […] Rats were let in their cage with waer et food ad libitum.
Rats were sacrificed and brain fixed by trans-cardiac perfusion with paraformaldehyde. Frontal brain slices (25 μm) were strained by Cresyl-Violet or co-stained by Hoechst 33342 and Fluorojade B to assess cell death in the hippocampus and in the cortex. […] Fluoro JadeB (green fluorescence) intake is possible only in cells which have permeable plasma membrane, thus more caracteristic of dying cells. Hoechst 33342 (blue fluorescence) label nuclei all all cells and allows to appreciate nuclear morphology changes during cell death.
Cells were counted at the level of canula, as well as 650 μm and 780 μm after the cannula (antero-posterior axis) in the left brain hemisphere. Cells are counted in three successives slices at such levels in the hippocampus (CA1, CA3, girus dentus) and cortex. […] Both Fluoro Jade B and Hoechst stained slices were observed under a Leica DMIRB inverted fluorescence microscope equiped with ×40 objective and LEICA IM1000/Qfluorobase software (BP 340-80 excitation filter combined with LP 425 emission filter for Hoechst; BP 480/40 excitation filter combined with BP 515-560 emission filter for Fluoro Jade B).
Data set [8] has as its system global cerebral ischemia (4VO). Particulars: 4VO ischemic treated rats versus untreated rats.
Protocol: Corporal temperature was measured during churgical procedure at day 1 (from anesthesia to stepl (vertebral electrocauterisation and cannula putting up) and step 2 (coratid isolation) of chirurgical procedure during. Corporal temperature was also measured 0, 10, 20 minutes after the beginning of ischemia, at day 2. Temperature was measured 24, 48, 72 H post-ischemia and before final anesthesia for perfusion at day 5. Behavioural studies (feeding, spontaneous activity and reactivity) were performed and evaluated by scoring.
Feeding: observation of stomacal contains at day 5
If refeeding=1; If no refeeding=0
Vivacity=1; More or less vivacious=0.5; No or poor vivacity=0.
Reactivity: animal are sensitive and reactive to noise and move to the origin of the noise.
If curious=1; If relatively curious=0.5; If not very curious=0.

With `COC(=O)C[C@H](NC(=O)[C@H](C)NC(=O)[C@@H](NC(=O)[C@H](CC(=O)OC)NC(=O)[C@@H](NC(=O)c1ccc2ccccc2n1)C(C)C)C(C)C)C(=O)COc1c(F)cccc1F` [Qco-VDVAD-dfp, 2-Quinolinylcarbonyl-L-Valinyl-L-Aspartyl (methyl ester)-L-Valinyl-L-Alanyl-L-Aspartyl (methyl ester) 2,6-difluorophenyl ester] (Quinaldoyl-VD(OMe)VA-X1), the “cross reactivity against 32 other related proteases or enzymes” value in data set [1] is “no cross reactivity”. Besides, the “infarct volume (%), mean” value in data set [2] (0.1 mg/kg i.p. 1 h after MCAO, 48 hrs, control 22.64±1.6%) stood at 9.95±2.8%. Moreover, the “reduction in infarct volume” value in data set [2] (0.1 mg/kg i.p. single dose 1 h after MCAO / ischemic onset, 48 hrs, n=19) is given as 44%. The “infarct volume of the four animals with intermediate protection” value in data set [2] (5 mg/kg i.p. before ischemic onset, 4 of 12 animals) came to 16.5±1.32%. For the same compound, the “infarct volume, median of the eight animals with complete protection or very marked smaller infarct” value in data set [2] (5 mg/kg i.p. before ischemic onset, 8 of 12 animals) turned out to be 0.5%. In data set [2] (5 mg/kg i.p. before ischemic onset, 48 hrs, control 22.1±1.4%), the “infarct volume (% damage of ipsilateral hemisphere), mean” value turned out to be 5.7±2.3%. In data set [2] (5 mg/kg i.p. before ischemic onset, all 12 animals, control median=21), the “infarct volume, median” value is on record as 0.5. For the same compound, the “reduction in infarct volume” value in data set [2] (5 mg/kg i.p. single dose 5-15 min before ischemic onset, 48 hrs, n=12) worked out at 74%. Besides, the “terminal transferase dUTP nick end labeling (TUNEL)” value in data set [2] (ipsilateral cortex of treated animals) is listed as “significantly decreased”. In data set [3], the “caspase-2 activity in brain of ischemic rat pups” value is “inhibited caspase-2 activity” and the “caspase-2 processing in brain of ischemic rat pups (western blot)” value was “inhibited caspase-2 activity as well as caspase-2 processing”. Moreover, the “degradation after freeze/thawing (HPLC)” value in data set [4] is recorded as “No degradation”. Besides, in data set [5] (24 h serum deprivation), the “caspase-2 activity in serum-deprived cortical neurons” value is “prevents caspase-2 activity”. Besides, the cell permeance result in data set [5] (inferred from prevention of caspase-2 activity in cortical neuron cultures) is “cell-permeant”. In addition, in data set [6], the “cell death in hippocampus or cortex of non-ischemic rats” value is < 10% and the topical toxicity entry is listed as “not topically tokic”. In data set [7], the “Cresyl-violet staining intensity in CA1” value is “partially restored”. In addition, the “abnormal nuclei in CA1 (Hoechst)” value in data set [7] (versus ischemic rats) is recorded as “less abnormal nuclei”. Also, the “cells incorporating Fluorojade B in CA1” value in data set [7] (ischemic rats 50-60%) was 10-20%. The “general behaviour scoring (feeding, spontaneous activity, reactivity)” value in data set [8] is listed as “better scoring”.
